Assay results from patent US8318781B2, “G-protein-conjugated receptor agonist” (Japan Science and Technology Agency, priority 2007, dated 2012).

Molecular target: T1, human GPR120 (hGPR120) (Homo sapiens, UniProt Q5NUL3)
T1 construct: expressed in transfected cells; doxycycline-inducible expression vector
T1 sequence (Q5NUL3 1-361): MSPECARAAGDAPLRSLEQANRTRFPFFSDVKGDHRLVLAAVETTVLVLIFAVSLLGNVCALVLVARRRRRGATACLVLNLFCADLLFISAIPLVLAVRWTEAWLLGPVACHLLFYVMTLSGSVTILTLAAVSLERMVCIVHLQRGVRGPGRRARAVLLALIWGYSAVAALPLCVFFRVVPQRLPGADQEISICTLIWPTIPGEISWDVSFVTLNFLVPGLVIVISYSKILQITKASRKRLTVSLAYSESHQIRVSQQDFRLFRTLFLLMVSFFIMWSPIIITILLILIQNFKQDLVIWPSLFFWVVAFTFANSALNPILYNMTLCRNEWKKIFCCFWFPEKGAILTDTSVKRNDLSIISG
Assay: ERK assay, screening for GPR120 ligands in cell line TXGPR120;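 as to ERK/GPR120 10 μM: signals normalized between DMSO and PMA controls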
Type: cell-based
Settings: for selectivity for GPR120 in ERK assay (in words): GPR120 versus GPR40; for ERK activation for GPR120 (in words) / ERK/GPR120 10 μM / ERK/GPR120 100 μM: TXGPR120 cells; for ERK activation for GPR120 (in words): FIGS. 5-8; for ERK/GPR120 10 μM: ligand 10 μM; for ERK/GPR120 10 μM / ERK/GPR120 100 μM: class relative to LA; for ERK/GPR120 100 μM: ligand 100 μM

Structure (SMILES) | selectivity for GPR120 in ERK assay (in words) | ERK activation for GPR120 (in words) | ERK/GPR120 10 μM | ERK/GPR120 100 μM
O=C(O)CCCc1ccc(OCCN(c2ccccc2)c2nccs2)cc1 [NCG46] | selective for GRP120 | strongly activate ERK | +++ (+++ denotes a higher value than LA) | +++ (+++ denotes a higher value than LA)
CN(C)c1ccc(N(CCOc2ccc(CCCC(=O)O)cc2)c2ccccn2)cc1 [NCG54] | selective for GRP120 | strongly activate ERK | +++ (+++ denotes a higher value than LA) | +++ (+++ denotes a higher value than LA)
